Test results published in US20090221642A1, “MUSCARINIC RECEPTOR AGONISTS, COMPOSITIONS, METHODS OF TREATMENT THEREOF, AND PROCESSES FOR PREPARATION THEREOF-176” (AstraZeneca AB, priority 2008, published 2009).

Legend:
Assay type in all cases: cell-based
[1] = biological target: T1, hM1 (human Muscarinic receptor subtype 1) (Homo sapiens, UniProt P11229); assay: Human M1 calcium mobilization FLIPR assay; settings: hM1 expressed in CHO cells, intracellular Ca2+ release, read-out: hM1 EC50
T1 construct: expressed in transfected cells; host or cells: CHO cells (Chinese hamster ovary cells, ATCC)
T1 sequence (P11229 1-460): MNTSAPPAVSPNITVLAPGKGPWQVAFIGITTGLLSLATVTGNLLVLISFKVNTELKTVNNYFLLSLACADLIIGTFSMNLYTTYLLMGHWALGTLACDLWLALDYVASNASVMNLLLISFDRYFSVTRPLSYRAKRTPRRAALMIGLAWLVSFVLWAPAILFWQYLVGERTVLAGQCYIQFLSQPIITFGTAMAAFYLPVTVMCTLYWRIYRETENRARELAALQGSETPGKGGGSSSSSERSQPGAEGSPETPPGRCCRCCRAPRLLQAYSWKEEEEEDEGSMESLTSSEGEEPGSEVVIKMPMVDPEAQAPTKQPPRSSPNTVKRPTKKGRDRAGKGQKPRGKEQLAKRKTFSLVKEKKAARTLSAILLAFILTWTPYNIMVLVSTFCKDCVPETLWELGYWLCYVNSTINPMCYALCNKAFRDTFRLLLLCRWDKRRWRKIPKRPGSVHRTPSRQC
Outline: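 CHO cells expressing the receptor, dye-loaded at 37°C for 60 min, read on FLIPR at 510-570 nm. Agonism taken from compound-induced Ca2+ rise (max RFU for M1); M3/M5 inhibition measured against 2 nM acetylcholine using max minus min RFU. 10-point threefold dilutions, sigmoidal fits.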

[2] = biological target: T2, hM3 (human Muscarinic receptor subtype 3) (Homo sapiens, UniProt P20309); assay: Human M3 calcium mobilization FLIPR assay; settings: hM3 expressed in CHO cells, intracellular Ca2+ release, read-out: hM3 EC50
T2 construct: expressed in transfected cells; host or cells: CHO cells (Chinese hamster ovary cells, ATCC)
T2 sequence (P20309 whole entry): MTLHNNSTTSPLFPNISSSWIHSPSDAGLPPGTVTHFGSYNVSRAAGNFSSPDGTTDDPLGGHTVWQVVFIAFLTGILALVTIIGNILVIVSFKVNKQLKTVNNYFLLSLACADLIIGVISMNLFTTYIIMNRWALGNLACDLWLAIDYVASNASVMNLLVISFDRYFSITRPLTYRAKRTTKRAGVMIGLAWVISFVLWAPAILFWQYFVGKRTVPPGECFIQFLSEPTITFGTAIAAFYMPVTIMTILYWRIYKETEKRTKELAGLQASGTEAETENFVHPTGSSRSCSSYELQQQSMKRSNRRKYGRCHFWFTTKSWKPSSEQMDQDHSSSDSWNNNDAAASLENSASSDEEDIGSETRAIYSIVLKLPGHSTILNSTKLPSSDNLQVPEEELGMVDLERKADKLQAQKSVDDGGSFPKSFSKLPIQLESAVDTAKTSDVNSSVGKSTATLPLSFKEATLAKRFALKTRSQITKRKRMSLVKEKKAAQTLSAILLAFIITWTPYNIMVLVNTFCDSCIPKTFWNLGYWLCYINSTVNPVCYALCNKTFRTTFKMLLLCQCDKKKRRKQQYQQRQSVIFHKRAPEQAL
Protocol: (§1) Human M1, rat M1, human M3 and human M5 Calcium Mobilization FLIPR™ Assay
(§2) The compound activity in the present invention (EC50 or IC50) is measured using a 384 plate-based imaging assay that monitors drug induced intracellular Ca^2+ release in whole cells. Activation of hM1 (human Muscarinic receptor subtype 1, gene bank access NM_000738), rM1 (rat Muscarinic receptor subtype 1, gene bank access NM_080773), hM3 (human Muscarinic receptor subtype 3, gene bank access NM_000740NM_000740) and hM5 (human Muscarinic receptor subtype 5, gene bank access NM_0121258), receptors expressed in CHO cells (Chinese hamster ovary cells, ATCC) is quantified in a Molecular Devices FLIPR II™ instrument as an increase in fluorescent signal. Inhibition of hM3 and hM5 by compounds is determined by the decrease in fluorescent signal in response to 2 nM acetylcholine activation.
(§3) Prior to experiment, the cell culture medium is removed from the plates by inversion. […] Plates are incubated at 37° C. for 60 minutes prior to start the experiment. The incubation is terminated by washing the cells four times in assay buffer, leaving a residual 25 μl buffer per well. Cell plates are then transferred to the FLIPR, ready for compound additions.
(§4) The day of experiment, acetylcholine and compounds are diluted in assay buffer in three-fold concentration range (10 points serial dilution) for addition by FLIPR instrument. For all calcium assays, a baseline reading is taken for 10 seconds followed by the addition of 12.5 μl of compounds, resulting in a total well volume of 37.5 μl. Data is collected every second for 60 pictures and then every 6 seconds for 20 pictures prior to the addition of agonist. For hM3 and hM5, before agonist addition, a second baseline reading is taken for 10 seconds followed by the addition of 12.5 μl of agonist or buffer, producing a final volume of 50 μl. After agonist stimulation, the FLIPR continues to collect data every second for 60 pictures and then every 6 seconds for 20 pictures. The fluorescence emission is read using filter 1 (emission 510-570 nm) by the FLIPR on board CCD camera.
(§5) Calcium mobilization output data are calculated as the maximal relative fluorescence unit (RFU) minus the minimal value for both compound and agonist reading frame (except for hM1 and rM1 using only the maximal RFU). Data are analyzed using sigmoidal fits of a non-linear curve-fitting program (XLfit version 4.2.2 Excel add-in version 4.2.2 build 18 math 1Q version 2.1.2 build 18). All pEC50 and plC50 values are reported as arithmetic means ±standard error of mean of ‘n’ independent experiments.

[3] = biological target: T3, hM5 (human Muscarinic receptor subtype 5) (Homo sapiens, UniProt P08912); assay: Human M5 calcium mobilization FLIPR assay; settings: hM5 expressed in CHO cells, intracellular Ca2+ release, read-out: hM5 EC50
T3 construct: expressed in transfected cells; host or cells: CHO cells (Chinese hamster ovary cells, ATCC)
T3 sequence (P08912 1-532): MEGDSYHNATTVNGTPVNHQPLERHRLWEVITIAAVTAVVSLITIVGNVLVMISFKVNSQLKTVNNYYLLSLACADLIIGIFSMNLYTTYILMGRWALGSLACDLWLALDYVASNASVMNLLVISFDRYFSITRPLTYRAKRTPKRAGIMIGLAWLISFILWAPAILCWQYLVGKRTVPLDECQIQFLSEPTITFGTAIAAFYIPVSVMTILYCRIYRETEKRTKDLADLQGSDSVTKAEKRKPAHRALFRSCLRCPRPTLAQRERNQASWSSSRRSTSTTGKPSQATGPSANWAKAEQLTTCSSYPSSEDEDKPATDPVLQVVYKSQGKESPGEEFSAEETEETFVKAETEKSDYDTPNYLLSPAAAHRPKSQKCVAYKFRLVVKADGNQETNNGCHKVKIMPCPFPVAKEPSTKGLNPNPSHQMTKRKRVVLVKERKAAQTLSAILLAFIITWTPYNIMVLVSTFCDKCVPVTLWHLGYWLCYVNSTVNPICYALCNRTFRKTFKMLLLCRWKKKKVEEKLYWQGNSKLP
Protocol: as §1, §2, §3, §4, §5

SMILES | EC50 [1] [nM] | EC50 [2] [µM] | EC50 [3] [nM]
COC(=O)N1CCC(C)(N2CCC(n3c(=O)[nH]c4ccc(F)cc43)CC2)C1 (single isomer, unassigned) [Example 52, methyl 3-(4-(6-fluoro-2-oxo-2,3-dihydro-1H-benzo[d]imidazol-1-yl)piperidin-1-yl)-3-methylpyrrolidine-1-carboxylate] | 14.7 | > 40 | > 9640
CC1(N2CCC(n3c(=O)[nH]c4ccc(F)cc43)CC2)CCN(C(=O)OCCF)C1 (single isomer, unassigned) [Example 53, 2-fluoroethyl 3-(4-(6-fluoro-2-oxo-2,3-dihydro-1H-benzo[d]imidazol-1-yl)piperidin-1-yl)-3-methylpyrrolidine-1-carboxylate] | 11.5 | > 40 | > 6160
CCOC(=O)N1CCC(C)(N2CCC(n3c(=O)[nH]c4cc(F)c(C)cc43)CC2)C1 (single isomer, unassigned) [Example 55, ethyl 3-(4-(5-fluoro-6-methyl-2-oxo-2,3-dihydro-1H-benzo[d]imidazol-1-yl)piperidin-1-yl)-3-methylpyrrolidine-1-carboxylate] | 4.9 | > 40 | 1820
CCOC(=O)N1CCC(C)(N2CCC(n3c(=O)[nH]c4cc(F)c(C)cc43)CC2)C1 (single isomer, unassigned) [Example 56, ethyl 3-(4-(5-fluoro-6-methyl-2-oxo-2,3-dihydro-1H-benzo[d]imidazol-1-yl)piperidin-1-yl)-3-methylpyrrolidine-1-carboxylate] | 3.5 | > 3.54 | 1280
CCOC(=O)N1CCC(C)(N2CCC(n3c(=O)[nH]c4cc(F)c(F)cc43)CC2)C1 (single isomer, unassigned) [Example 57, ethyl 3-(4-(5,6-difluoro-2-oxo-2,3-dihydro-1H-benzo[d]imidazol-1-yl)piperidin-1-yl)-3-methylpyrrolidine-1-carboxylate] | 2.6 | 3.55 | 356
CCOC(=O)N1CCC(C)(N2CCC(n3c(=O)[nH]c4cc(F)c(F)cc43)CC2)C1 (single isomer, unassigned) [Example 58, ethyl 3-(4-(5,6-difluoro-2-oxo-2,3-dihydro-1H-benzo[d]imidazol-1-yl)piperidin-1-yl)-3-methylpyrrolidine-1-carboxylate] | 17.7 | > 40 | 2210
COC(=O)N1CCC(C)(N2CCC(n3c(=O)[nH]c4cc(F)c(F)cc43)CC2)C1 (single isomer, unassigned) [Example 60, methyl 3-(4-(5,6-difluoro-2-oxo-2,3-dihydro-1H-benzo[d]imidazol-1-yl)piperidin-1-yl)-3-methylpyrrolidine-1-carboxylate] | 13.5 | > 40 | > 7270
CC1(N2CCC(n3c(=O)[nH]c4cc(F)c(F)cc43)CC2)CCN(C(=O)OCCF)C1 (single isomer, unassigned) [Example 61, 2-fluoroethyl 3-(4-(5,6-difluoro-2-oxo-2,3-dihydro-1H-benzo[d]imidazol-1-yl)piperidin-1-yl)-3-methylpyrrolidine-1-carboxylate] | 14.1 | > 40 | > 2710
COC(=O)N1CCC(C)(N2CCC(N3C(=O)Cc4ccc(C)cc43)CC2)C1 (single isomer, unassigned) [Example 67, methyl 3-methyl-3-(4-(6-methyl-2-oxoindolin-1-yl)piperidin-1-yl)pyrrolidine-1-carboxylate] | 20.9 | > 33.5 | > 6710
COC(=O)N1CCC(C)(N2CCC(N3C(=O)Cc4ccc(C)cc43)CC2)C1 (single isomer, unassigned) [Example 68, methyl 3-methyl-3-(4-(6-methyl-2-oxoindolin-1-yl)piperidin-1-yl)pyrrolidine-1-carboxylate] | 13.3 | 2.33 | > 4080
CCOC(=O)N1CCC(C)(N2CCC(N3C(=O)Cc4ccc(C)cc43)CC2)C1 (single isomer, unassigned) [Example 69, ethyl 3-methyl-3-(4-(6-methyl-2-oxoindolin-1-yl)piperidin-1-yl)pyrrolidine-1-carboxylate] | 11 | > 40 | 1370
CCOC(=O)N1CCC(C)(N2CCC(N3C(=O)Cc4ccccc43)CC2)C1 (single isomer, unassigned) [Example 72, ethyl 3-methyl-3-(4-(2-oxoindolin-1-yl)piperidin-1-yl)pyrrolidine-1-carboxylate] | 9.5 | > 40 | > 40000
CCOC(=O)N1CCC(C)(N2CCC(N3C(=O)Cc4ccccc43)CC2)C1 (single isomer, unassigned) [Example 73, ethyl 3-methyl-3-(4-(2-oxoindolin-1-yl)piperidin-1-yl)pyrrolidine-1-carboxylate] | 31 | > 40 | > 40000
CCOC(=O)N1CCC(C)(N2CCC(N3C(=O)Cc4ccc(F)cc43)CC2)C1 (single isomer, unassigned) [Example 74, ethyl 3-(4-(6-fluoro-2-oxoindolin-1-yl)piperidin-1-yl)-3-methylpyrrolidine-1-carboxylate] | 10 | > 40 | > 21200
CCOC(=O)N1CCC(C)(N2CCC(N3C(=O)Cc4ccc(F)cc43)CC2)C1 (single isomer, unassigned) [Example 75, ethyl 3-(4-(6-fluoro-2-oxoindolin-1-yl)piperidin-1-yl)-3-methylpyrrolidine-1-carboxylate] | 47.5 | > 40 | > 27000
CCOC(=O)N1CCC(C)(N2CCC(N3C(=O)Cc4cc(F)ccc43)CC2)C1 (single isomer, unassigned) [Example 79, ethyl 3-(4-(5-fluoro-2-oxoindolin-1-yl)piperidin-1-yl)-3-methylpyrrolidine-1-carboxylate] | 9.2 | > 40 | 2540
CCOC(=O)N1CCC(C)(N2CCC(N3C(=O)Cc4cc(F)c(C)cc43)CC2)C1 (single isomer, unassigned) [Example 81, ethyl 3-(4-(5-fluoro-6-methyl-2-oxoindolin-1-yl)piperidin-1-yl)-3-methylpyrrolidine-1-carboxylate] | 8.7 | > 13.3 | 1240
